PubChem BioAssay (NCI)
Where “and” joins values, the source holds several entries; their conditions need not be identical. Identical values can stand only once.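 Exposure lasted 48 hours, with cells grown in 96-well plates and compounds tested at five concentrations. Here, GI50 denotes the concentration required for 50% inhibition of growth. TGI: total growth inhibition.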

What was measured:
Test in all cases: DTP human tumour cell line panel, 48 h
HCT-15 colon = system: HCT-15 colon
MDA-MB-435 = system: MDA-MB-435
MDA-MB-231 breast = system: MDA-MB-231 breast
OVCAR-3 ovarian = system: OVCAR-3 ovarian
T-47D breast = system: T-47D breast
OVCAR-4 ovarian = system: OVCAR-4 ovarian
DU-145 prostate = system: DU-145 prostate
SK-MEL-5 melanoma = system: SK-MEL-5 melanoma
MALME-3M melanoma = system: MALME-3M melanoma
COLO 205 colon = system: COLO 205 colon

Row | SMILES | GI50 (HCT-15 colon) [µM] | TGI (HCT-15 colon) | GI50 (MDA-MB-435) [µM] | TGI (MDA-MB-435) [µM] | GI50 (MDA-MB-231 breast) [µM] | TGI (MDA-MB-231 breast) [µM] | GI50 (OVCAR-3 ovarian) [µM] | TGI (OVCAR-3 ovarian) [µM] | GI50 (T-47D breast) [µM] | TGI (T-47D breast) [µM] | GI50 (OVCAR-4 ovarian) [µM] | TGI (OVCAR-4 ovarian) [µM] | GI50 (DU-145 prostate) [µM] | TGI (DU-145 prostate) [µM] | GI50 (SK-MEL-5 melanoma) [µM] | TGI (SK-MEL-5 melanoma) | GI50 (MALME-3M melanoma) [µM] | TGI (MALME-3M melanoma) | GI50 (COLO 205 colon) [µM] | TGI (COLO 205 colon) [µM]
1 | CN1C(NC(=O)c2ccc(Cl)nc2)=NS(=O)(=O)c2cc(Cl)ccc21 | > 100 | > 100 µM | > 100 | > 100 | > 100 | > 100 | > 100 | > 100 | > 100 | > 100 | > 100 | > 100 | > 100 | > 100 | > 100 | > 100 µM | > 100 | > 100 µM | > 100 | > 100
2 | CCCNC(=S)N/N=C(\C)c1ccccn1 | 0.0514 | > 100 µM | 0.53 | > 100 | 0.0757 | > 100 | < 0.01 | > 100 | 0.0274 | > 100 | < 0.01 | 0.0441 | 1.1 | > 42.9 | 0.213 | 2.55 µM | 2.11 | > 100 µM | 0.04 | > 100
3 | Cc1cc(C2CCCCC2)n(O)c(=O)c1 | 0.655 | > 100 µM and 38.1 µM | 2.27 | > 100 | 2.16 | > 100 | 0.521 | 54 | 2.63 | > 100 | 0.75 | > 100 | 2.04 | > 100 | 1.49 | 7.38 µM and 38.3 µM | 2.66 | > 100 µM and 49.4 µM | 4.46 | > 100
4 | Cc1[nH]c(N=Nc2ccccc2)nc1N=Nc1ccccc1 | 1.4 | 22.1 µM | 3.35 | 17.9 | 5.25 | > 45.4 | 2.6 | 16.1 | 2.77 | > 46.8 | 3.06 | 55.4 | 3.17 | > 34.9 | 2.41 | 7.83 µM | 2.27 | 8.06 µM | 2.96 | 13.1
5 | CCC1(O)C(=O)OCc2c1cc1n(c2=O)Cc2cc3c(N)cccc3nc2-1 (stereo unspecified) | – | 25.2 µM | – | 2.88 | – | 14.2 | – | 3.02 | 0.0191 | 0.654 | – | 11.6 | – | 0.25 | – | 0.192 µM | – | 5.67 µM | – | 6.41
